Earlier results in patent EP4378455A1, “A PHARMACEUTICAL FORMULATION COMPRISING EMPAGLIFLOZIN” (SANOVEL ILAC SANAYI VE TICARET A.S., priority 2022, dated 2024).

- solubility in acetonitrile (acetonitrile): slightly soluble
- solubility in ethanol (ethanol): slightly soluble
- solubility in methanol (methanol): sparingly soluble
- solubility in toluene (toluene): practically insoluble
- solubility in water (water (pH 1-7.4)): very slightly soluble
Compound: OC[C@H]1O[C@@H](c2ccc(Cl)c(Cc3ccc(O[C@H]4CCOC4)cc3)c2)[C@H](O)[C@@H](O)[C@@H]1O [Empagliflozin, (1S)-1,5-anhydro-1-(4-chloro-3-{4-[(3S)-tetrahydrofuran-3-yloxy]benzyl}phenyl)-D-glucitol]
